Reference: ChEMBL document CHEMBL1201862, “PubChem BioAssay data set” (2004)
Several values for one entry are separate records, joined by “and”; a condition that tells them apart may be missing. Equal entries are not always repeated.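 Five concentrations, 48 hours, 96-well plates. GI50 = concentration required for 50% inhibition of growth.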 Activity calls are given as the source filed them. Rule as the data show it: active = GI50 up to about 1.1 µM and inactive = higher.

Assays:
Assay in all cases: growth of human tumour cells (NCI), 48 h
K562 = test system: K562
A498 = test system: A498
MDA-MB-231 = test system: MDA-MB-231
NCI-H522 = test system: NCI-H522
UACC-62 = test system: UACC-62
IGROV-1 = test system: IGROV-1
SF-295 = test system: SF-295
DU-145 = test system: DU-145
SF-539 = test system: SF-539
LOX IMVI = test system: LOX IMVI
M14 = test system: M14
SNB-19 = test system: SNB-19
RPMI-8226 = test system: RPMI-8226
HT-29 = test system: HT-29
COLO 205 = test system: COLO 205
PC-3 = test system: PC-3
UACC-257 = test system: UACC-257
MDA-N = test system: MDA-N
MOLT-4 = test system: MOLT-4
HL-60 = test system: HL-60

Measured: GI50

Cc1[nH]c(C)c(CN(C)C)c1CN(C)C
inactive: K562 > 100 µM | A498 > 100 µM | MDA-MB-231 > 100 µM | NCI-H522 > 100 µM | UACC-62 > 100 µM | IGROV-1 > 100 µM | SF-295 > 100 µM | DU-145 > 100 µM | SF-539 > 100 µM | LOX IMVI > 100 µM | M14 > 100 µM | SNB-19 > 100 µM | RPMI-8226 > 100 µM | HT-29 > 100 µM | COLO 205 > 100 µM | PC-3 > 100 µM | UACC-257 > 100 µM | MDA-N > 100 µM

CNc1ncccc1Nc1cc(=O)n2c3cccnc3n(C)c2c1
inactive: K562 > 100 µM | A498 89.7 µM | MOLT-4 > 100 µM | MDA-MB-231 13.7 µM | NCI-H522 61 µM | UACC-62 > 100 µM | IGROV-1 34.1 µM | SF-295 93.5 µM | DU-145 > 100 µM | SF-539 73.5 µM | LOX IMVI > 100 µM | M14 > 100 µM | SNB-19 40.9 µM | RPMI-8226 > 100 µM | HT-29 58.3 µM | COLO 205 > 100 µM | PC-3 9.51 µM | UACC-257 > 100 µM | MDA-N > 100 µM

O=C(NCCC1CN(C(=O)OCc2ccccc2)c2ccccc21)OCc1ccccc1 (stereo not given)
inactive: K562 > 100 µM | A498 > 100 µM | MOLT-4 > 100 µM | MDA-MB-231 > 100 µM | NCI-H522 90.6 µM | UACC-62 > 100 µM | IGROV-1 > 100 µM | SF-295 > 100 µM | DU-145 > 100 µM | M14 > 100 µM | SNB-19 > 100 µM | RPMI-8226 > 100 µM | HT-29 > 100 µM | COLO 205 > 100 µM | PC-3 > 100 µM | UACC-257 > 100 µM | MDA-N > 100 µM

O=c1nc2ccc3sc4ccccc4c(=O)c3n2c(=O)[nH]1
inactive: K562 > 100 µM | A498 > 100 µM | MOLT-4 > 100 µM | MDA-MB-231 > 100 µM | NCI-H522 73.8 µM | HL-60 83.4 µM | IGROV-1 > 100 µM | SF-295 > 100 µM | DU-145 > 100 µM | SF-539 > 100 µM | LOX IMVI > 100 µM | SNB-19 > 100 µM | RPMI-8226 > 100 µM | HT-29 > 100 µM | COLO 205 > 100 µM | PC-3 > 100 µM | UACC-257 > 100 µM | MDA-N > 100 µM

COc1ccc(/C=C2/N/C(=N\N=C/C(O)C(O)C(O)C(O)CO)NC2=O)cc1 (stereo not given)
inactive: K562 53.8 µM and 78 µM | A498 > 100 µM | MOLT-4 > 10 µM | MDA-MB-231 > 100 µM | NCI-H522 > 100 µM | HL-60 33 µM | IGROV-1 > 100 µM | SF-295 > 100 µM | DU-145 > 100 µM | SF-539 > 100 µM | LOX IMVI > 100 µM | M14 > 100 µM | SNB-19 > 100 µM | RPMI-8226 > 100 µM | HT-29 > 100 µM | COLO 205 > 100 µM | PC-3 > 100 µM | UACC-257 > 100 µM | MDA-N > 100 µM

COc1ccc(C(=O)N(C(=O)N2CCN(c3ccccc3)CC2)S(=O)(=O)c2ccccc2)cc1
inactive: K562 24.2 µM | A498 53.8 µM | MOLT-4 19.5 µM | MDA-MB-231 25.3 µM | NCI-H522 15.4 µM | HL-60 22.1 µM | UACC-62 18.3 µM | SF-295 31.9 µM | DU-145 27.2 µM | SF-539 17.8 µM | LOX IMVI 13.7 µM | M14 19.7 µM | SNB-19 24.7 µM | HT-29 28.1 µM | COLO 205 17.9 µM | PC-3 30.5 µM | UACC-257 31.4 µM | MDA-N 23.9 µM

COC(=O)C1CCCCCCCCCCC12SCCCS2 (stereo not given)
inactive: K562 24.5 µM | A498 29.5 µM | MOLT-4 15.8 µM | MDA-MB-231 21.7 µM | NCI-H522 17.2 µM | UACC-62 25.6 µM | IGROV-1 17.7 µM | SF-295 16.5 µM | DU-145 16.7 µM | SF-539 25.3 µM | LOX IMVI 18.3 µM | M14 15.5 µM | SNB-19 18.2 µM | HT-29 32.8 µM | COLO 205 18.6 µM | PC-3 17.5 µM | UACC-257 17.5 µM | MDA-N 30.8 µM

N#CCCC(C=O)(CCC#N)CCC#N
inactive: K562 > 100 µM | A498 > 100 µM | MDA-MB-231 > 100 µM | NCI-H522 > 100 µM | HL-60 > 100 µM | UACC-62 > 100 µM | IGROV-1 > 100 µM | SF-295 > 100 µM | DU-145 > 100 µM | SF-539 > 100 µM | LOX IMVI > 100 µM | M14 > 100 µM | SNB-19 > 100 µM | HT-29 > 100 µM | COLO 205 > 100 µM | PC-3 > 100 µM | UACC-257 > 100 µM | MDA-N > 100 µM

COC1=CC(=O)C2=C(C1=O)[C@H]1CC[C@]3(C)[C@@H](OC(C)=O)CC[C@H]3[C@@H]1CC2
inactive: K562 44.4 µM | A498 > 100 µM | MOLT-4 20.2 µM | MDA-MB-231 17 µM | NCI-H522 > 100 µM | HL-60 16.4 µM | IGROV-1 25.2 µM | SF-295 92.3 µM | DU-145 67.8 µM | SF-539 75.3 µM | LOX IMVI 15.1 µM | M14 > 100 µM | SNB-19 > 100 µM | RPMI-8226 31 µM | HT-29 20.8 µM | COLO 205 44.2 µM | PC-3 39.9 µM | UACC-257 27.1 µM | MDA-N 28.6 µM

CC(=O)OC12c3ccccc3-c3ccccc3C1C1C(=O)N(C)C(=O)C12Cl (stereo not given)
inactive: K562 > 10 µM | A498 > 10 µM | MOLT-4 > 10 µM | MDA-MB-231 > 10 µM | NCI-H522 > 10 µM | HL-60 > 10 µM | IGROV-1 > 10 µM | SF-295 > 10 µM | DU-145 > 10 µM | SF-539 > 10 µM | LOX IMVI > 10 µM | M14 > 10 µM | SNB-19 > 10 µM | RPMI-8226 > 10 µM | HT-29 > 10 µM | COLO 205 > 10 µM | PC-3 > 10 µM | UACC-257 > 10 µM | MDA-N > 10 µM

CCCCCCCCC/C=C1\CC(CO)(COC(=O)C2CCCCC2)OC1=O (stereo not given)
inactive: K562 11 µM | A498 22.1 µM | MOLT-4 21.7 µM | MDA-MB-231 19.7 µM | NCI-H522 18.3 µM | UACC-62 21.5 µM | IGROV-1 20.2 µM | SF-295 15.9 µM | DU-145 7.6 µM | LOX IMVI 11.8 µM | M14 18.6 µM | SNB-19 21.8 µM | HT-29 19.7 µM | COLO 205 13.6 µM | PC-3 17 µM | UACC-257 27.4 µM | MDA-N 16.7 µM
